Data as given in patent publication US20250288704A1, “CXCR4-LIGANDS FOR DIAGNOSTIC AND THERAPEUTIC USE AND PRECURSORS THEREOF” (priority 2021, published 2025).
Like-named read-outs stand apart in the source and are kept apart here. Starred links: 1 amine or outer side, 2 acyl side, 3 side chain; linkers in the order of their positions; H or OH if unused. Positions of bridges follow the written chain, without caps; N, C: chain ends. Non-standard residues stand in square brackets, D forms with d. Residues, ends and D or L forms follow the SMILES beside them. Groups on a side chain read outwards from the residue. Chains are numbered I, II in the order given. *: point of attachment. X6 = CN1/C(=C/C=C/C=C/C2=[N+](CCCCCC(=O)*)c3ccc(S(=O)(=O)[O-])cc3C2(C)C)C(C)(C)c2cc(S(=O)(=O)O)ccc21; X2 = OC[C@H]1O[C@@H](O[C@H]2[C@H](O)[C@@H](O)[C@H](*)O[C@@H]2CO)[C@H](O)[C@@H](O)[C@H]1O; X7 = O=C(O)CN1CCN(CC(=O)O)CCN([C@H](CCC(=O)*)C(=O)O)CCN(CC(=O)O)CC1; Benzoyl(4-SiFtBu2) = CC(C)(C)[Si](F)(c1ccc(C(=O)*)cc1)C(C)(C)C; X5 = CC(C)(C)[Si](F)(c1ccc(C[N+](C)(C)CC(=O)*)cc1)C(C)(C)C; DOTA = O=C(O)CN1CCN(CC(=O)O)CCN(CC(=O)*)CCN(CC(=O)O)CC1; Dolaproine = CO[C@@H]([C@@H]1CCCN1)[C@@H](C)C(=O)O; Dil = CC[C@H](C)[C@H](NC)[C@@H](CC(=O)O)OC; d(γGlu) = O=C(O)[C@@H](CCC(=O)[*:2])N[*:1]; Tyr(3-I) = N[C@@H](Cc1ccc(O)c(I)c1)C(=O)O; X11 = O=C1CC([*:2])C(=O)N1CCCCCC(=O)[*:1]; 2Nal = N[C@@H](Cc1ccc2ccccc2c1)C(=O)O; d2Nal = N[C@H](Cc1ccc2ccccc2c1)C(=O)O; PABC = O=C(OCc1ccc(N[*:1])cc1)[*:2]; X10 = C[C@@H](N*)[C@@H](O)c1ccccc1; Cit = NC(=O)NCCC[C@H](N)C(=O)O; dNMeOrn = CN[C@H](CCCN)C(=O)O; NMeV = CN[C@H](C(=O)O)C(C)C; d(hCys) = N[C@H](CCS)C(=O)O; Mercaptoacetyl = O=C(CS)*; 4Abz = Nc1ccc(C(=O)O)cc1; dDap = NC[C@@H](N)C(=O)O; CO = O=C([*:1])[*:2]; Ahx = NCCCCCC(=O)O

Assays:
[1] = Octanol/PBS partition coefficient (logD7.4); assay type: physicochemical; conditions: n-octanol/PBS pH 7.4, radiolabeled compound
Method: The tubes were vortexed at maximum speed for 3 min to ensure equilibrium before centrifugation at 15.000×g for 5 min on a Biofuge 15 from Heraeus Holding GmbH (Osterode, Germany). An aliquot of 100 μL of each fraction was measured in the γ-counter and the log D7.4 calculated as follows: […]

CXCR4 = CXCR4 (Homo sapiens, UniProt P61073); experiment: Determination of IC50: competition with 125I-Fc-131 on CXCR4-positive Jurkat cells; assay type: binding; set-up: CXCR4-positive Jurkat T lymphocyte cells were grown in Gibco's RPMI 1640 GlutaMAX medium; endogenous in cells; host or cells: Jurkat T lymphocyte cells (whole cells in suspension, 400.000 per tube);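 further: test compound at 10^−5 to 10^−11 M competed for 2 h at 8 °C with the radioligand on 400,000 cells per well, bound versus free activity measured by γ-counting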
[2] = Biodistribution in Jurkat tumor-bearing CB-17 SCID mice; assay type: in vivo; conditions: female, CB-17 SCID, mouse, in vivo, iv, total radioactivity, 1 h p.i., Jurkat xenograft, CB-17 SCID female mice
Method: All animal experiments were conducted in accordance with general animal welfare regulations in Germany and the institutional guidelines for the care and use of animals. To establish tumor xenografts, Jurkat cells (2-3×10^7 cells) were suspended in a mixture of Gibco's RPMI 1640 medium and Matrigel (1/1; v/v) from BD Biosciences (Heidelberg, Germany), and inoculated subcutaneously onto the right shoulder of 6-10 weeks old CB17-SCID mice from either Charles River GmbH (Sulzfeld, Germany) or the in-house mouse breeding facility. Mice were used when tumors had grown to a diameter of 5-8 mm (4-10 weeks after inoculation).
Approximately 0.5-20 MBq (0.02-0.20 nmol) of the ^125I-, ^177Lu-, ^99mTc-, ^18F- or ^68Ga-labeled ligand were injected into the tail vein of Jurkat tumor-bearing CB-17 SCID mice and the animals sacrificed after the respective biodistribution time. Selected organs were removed, weighted and measured in a γ-counter.

[3] = unlabeled or cold (natGa/natLu) compound vs 125I-Fc-131, Jurkat cells
[4] = Intestine, read-out: % iD/g Intestine
[5] = Kidney, read-out: % iD/g Kidney
[6] = Muscle, read-out: % iD/g Muscle
[7] = Pancreas, read-out: % iD/g Pancreas
[8] = Spleen, read-out: % iD/g Spleen
[9] = Stomach, read-out: % iD/g Stomach

Sequence of CXCR4 (P61073 whole entry): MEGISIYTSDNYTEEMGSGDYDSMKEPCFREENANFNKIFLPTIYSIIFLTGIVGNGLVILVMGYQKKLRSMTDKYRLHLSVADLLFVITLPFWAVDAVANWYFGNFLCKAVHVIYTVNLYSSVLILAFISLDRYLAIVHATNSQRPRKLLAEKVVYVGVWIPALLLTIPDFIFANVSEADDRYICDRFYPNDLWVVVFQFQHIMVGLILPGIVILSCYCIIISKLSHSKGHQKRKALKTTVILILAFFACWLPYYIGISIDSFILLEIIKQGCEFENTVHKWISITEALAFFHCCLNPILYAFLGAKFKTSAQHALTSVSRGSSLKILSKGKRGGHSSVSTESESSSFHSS

For `C[C@@H](NC(=O)[C@@H](CCCNC(=N)N)NC(=O)[C@@H](CN)NC(=O)[C@@H](CNC(=O)CC[C@H](C(=O)O)N1CCN(CC(=O)O)CCN(CC(=O)O)CCN(CC(=O)O)CC1)NC(=O)[C@@H](CNC(=O)c1ccc([Si](F)(C(C)(C)C)C(C)(C)C)cc1)NC(=O)CC[C@@H](NC(=O)N[C@H](CCC(=O)O)C(=O)O)C(=O)O)C(=O)Nc1ccc(C(=O)NCCC[C@@H]2C(=O)N[C@@H](CCCNC(=N)N)C(=O)N[C@@H](Cc3ccc4ccccc4c3)C(=O)NCC(=O)N[C@H](Cc3ccc(O)cc3)C(=O)N2C)cc1` [CXCR4-SiFA-4 [Lu]] (I: {dE-CO-d(γGlu)}-[dDap](Benzoyl(4-SiFtBu2))[dDap](X7)[dDap][dR][dA][4Abz] / II: cyclo([dY][dNMeOrn]R[2Nal]G); amide I:C-II:2), the logD7.4 [1] was −1.71 ± 0.09 (8) and the IC50 (CXCR4; [3]) was 93.4 ± 10.2 nM.
With `C[C@@H](NC(=O)[C@@H](CCCNC(=N)N)NC(=O)[C@@H](CN)NC(=O)CCCCCNC(=O)[C@@H](CNC(=O)CC[C@H](C(=O)O)N1CCN(CC(=O)O)CCN(CC(=O)O)CCN(CC(=O)O)CC1)NC(=O)C[N+](C)(C)Cc1ccc([Si](F)(C(C)(C)C)C(C)(C)C)cc1)C(=O)Nc1ccc(C(=O)NCCC[C@@H]2C(=O)N[C@@H](CCCNC(=N)N)C(=O)N[C@@H](Cc3ccc4ccccc4c3)C(=O)NCC(=O)N[C@H](Cc3ccc(O)cc3)C(=O)N2C)cc1` [CXCR4-SiFA-6 [Lu]] the logD7.4 [1] was −0.85 ± 0.04 (6) and the IC50 (CXCR4; [3]) was 8.29 ± 3.11 nM.
For `C[C@@H](NC(=O)[C@@H](CCCNC(=N)N)NC(=O)[C@@H](Cc1c[nH]cn1)NC(=O)[C@@H](CO)NC(=O)[C@@H](CO)NC(=O)[C@@H](CO)NC(=O)CS)C(=O)Nc1ccc(C(=O)NCCC[C@@H]2C(=O)N[C@@H](CCCNC(=N)N)C(=O)N[C@@H](Cc3ccc4ccccc4c3)C(=O)NCC(=O)N[C@H](Cc3ccc(O)cc3)C(=O)N2C)cc1` [Tc-CXCR4-5] (I: Mercaptoacetyl-[dS][dS][dS][dH][dR][dA][4Abz] / II: cyclo([dY][dNMeOrn]R[2Nal]G); amide I:C-II:2), the tissue uptake at 1 h ([2]; Adrenal, read-out: % iD/g Adrenal) was 0.42 %ID/g, the tissue uptake at 1 h ([2]; Blood, read-out: % iD/g Blood) was 0.65 %ID/g and the tissue uptake at 1 h ([2]; Bone, read-out: % iD/g Bone) was 1.55 %ID/g. It also gave a tissue uptake at 1 h ([2]; Heart, read-out: % iD/g Heart) of 0.48 %ID/g, a tissue uptake at 1 h [2, 4] of 0.76 %ID/g and a tissue uptake at 1 h [2, 5] of 2.89 %ID/g. The tissue uptake at 1 h ([2]; Liver, read-out: % iD/g Liver) was 2.42 %ID/g, the tissue uptake at 1 h ([2]; Lung, read-out: % iD/g Lung) was 1.57 %ID/g and the tissue uptake at 1 h [2, 6] was 0.15 %ID/g. For the same compound, the tissue uptake at 1 h [2, 7] was 0.4 %ID/g, the tissue uptake at 1 h [2, 8] was 8.47 %ID/g and the tissue uptake at 1 h [2, 9] was 0.7 %ID/g. The tissue uptake at 1 h ([2]; Tumor, read-out: % iD/g Tumor) was 1.48 %ID/g and the IC50 (CXCR4) was 11 ± 1.3 nM.
For `C[C@@H](NC(=O)[C@@H](CCCNC(=N)N)NC(=O)[C@@H](CN)NC(=O)CCCCCNC(=O)[C@@H](CNC(=O)CC[C@H](C(=O)O)N1CCN(CC(=O)O)CCN(CC(=O)O)CCN(CC(=O)O)CC1)NC(=O)[C@@H](CNC(=O)c1ccc([Si](F)(C(C)(C)C)C(C)(C)C)cc1)NC(=O)CC[C@@H](NC(=O)N[C@H](CCC(=O)O)C(=O)O)C(=O)O)C(=O)Nc1ccc(C(=O)NCCC[C@@H]2C(=O)N[C@@H](CCCNC(=N)N)C(=O)N[C@@H](Cc3ccc4ccccc4c3)C(=O)NCC(=O)N[C@H](Cc3ccc(O)cc3)C(=O)N2C)cc1` [CXCR4-SiFA-5 [Lu]] (I: {dE-CO-d(γGlu)}-[dDap](Benzoyl(4-SiFtBu2))[dDap](X7)[Ahx][dDap][dR][dA][4Abz] / II: cyclo([dY][dNMeOrn]R[2Nal]G); amide I:C-II:2), the logD7.4 [1] was −1.73 ± 0.05 (6) and the IC50 (CXCR4; [3]) was 45.8 ± 17.4 nM.
With `C[C@@H](NC(=O)[C@@H](CCCNC(=N)N)NC(=O)[C@@H](CN)NC(=O)CCCCCNC(=O)[C@@H](CNC(=O)CN1CCN(CC(=O)O)CCN(CC(=O)O)CCN(CC(=O)O)CC1)NC(=O)[C@@H](CCS[C@@H]1O[C@H](CO)[C@@H](O[C@@H]2O[C@H](CO)[C@H](O)[C@H](O)[C@H]2O)[C@H](O)[C@H]1O)NC(=O)C[N+](C)(C)Cc1ccc([Si](F)(C(C)(C)C)C(C)(C)C)cc1)C(=O)Nc1ccc(C(=O)NCCC[C@@H]2C(=O)N[C@@H](CCCNC(=N)N)C(=O)N[C@@H](Cc3ccc4ccccc4c3)C(=O)NCC(=O)N[C@H](Cc3ccc(O)cc3)C(=O)N2C)cc1` [CXCR4-SiFA-7 [Lu]] (I: X5-[d(hCys)](X2)[dDap](DOTA)[Ahx][dDap][dR][dA][4Abz] / II: cyclo([dY][dNMeOrn]R[2Nal]G); amide I:C-II:2) the logD7.4 [1] was −2.23 ± 0.11 (7) and the IC50 (CXCR4; [3]) was 6.05 ± 1.17 nM.
In the case of `CC[C@H](C)[C@@H]([C@@H](CC(=O)N1CCC[C@H]1[C@H](OC)[C@@H](C)C(=O)N[C@H](C)[C@@H](O)c1ccccc1)OC)N(C)C(=O)[C@@H](NC(=O)[C@H](C(C)C)N(C)C(=O)OCc1ccc(NC(=O)[C@H](CCCNC(N)=O)NC(=O)[C@@H](NC(=O)CCCCCN2C(=O)CC(SCC[C@@H](NC(C)=O)C(=O)N[C@H](CNC(=O)CC[C@H](C(=O)O)N3CCN(CC(=O)O)CCN(CC(=O)O)CCN(CC(=O)O)CC3)C(=O)NCCCCCC(=O)N[C@H](CN)C(=O)N[C@H](CCCNC(=N)N)C(=O)N[C@H](C)C(=O)Nc3ccc(C(=O)NCCC[C@@H]4C(=O)N[C@@H](CCCNC(=N)N)C(=O)N[C@@H](Cc5ccc6ccccc6c5)C(=O)NCC(=O)N[C@H](Cc5ccc(O)cc5)C(=O)N4C)cc3)C2=O)C(C)C)cc1)C(C)C` (stereo partly drawn) [CXCR4-MMAE-4] (I: V[Cit][PABC][NMeV]V[Dil][Dolaproine]-X10 / II: Ac-[d(hCys)][dDap](X7)[Ahx][dDap][dR][dA][4Abz] / III: cyclo([2Nal]G[dY][dNMeOrn]R); linker I:N-II:1 via X11; amide II:C-III:4), the logD7.4 [1] is reported as −1.04 ± 0.07 (8) and the IC50 (CXCR4) is reported as 113 ± 20 nM.
With `C[C@@H](NC(=O)[C@@H](CCCNC(=N)N)NC(=O)[C@@H](CN)NC(=O)CCCCC[N+]1=C(/C=C/C=C/C=C2/N(C)c3ccc(S(=O)(=O)O)cc3C2(C)C)C(C)(C)c2cc(S(=O)(=O)[O-])ccc21)C(=O)Nc1ccc(C(=O)NCCC[C@@H]2C(=O)N[C@@H](CCCNC(=N)N)C(=O)N[C@H](Cc3ccc4ccccc4c3)C(=O)NCC(=O)N[C@@H](Cc3ccc(O)c(I)c3)C(=O)N2C)cc1` [CXCR4-OI-2] (cyclo([Tyr(3-I)][dNMeOrn]([4Abz-dA-dR-dDap-X6])R[d2Nal]G)) the logD7.4 [1] was −1.83 ± 0.02 (5), the tissue uptake at 1 h ([2]; Blood, read-out: % iD/g Blood) was 1.73 %ID/g and the tissue uptake at 1 h ([2]; Bone, read-out: % iD/g Bone) was 1.2 %ID/g. It also gave a tissue uptake at 1 h ([2]; Heart, read-out: % iD/g Heart) of 1.84 %ID/g, a tissue uptake at 1 h [2, 4] of 1.88 %ID/g and a tissue uptake at 1 h [2, 5] of 13.9 %ID/g. The tissue uptake at 1 h ([2]; Liver, read-out: % iD/g Liver) was 35.3 %ID/g, the tissue uptake at 1 h ([2]; Lung, read-out: % iD/g Lung) was 5.54 %ID/g and the tissue uptake at 1 h [2, 6] was 0.41 %ID/g. The tissue uptake at 1 h [2, 7] was 1.1 %ID/g, the tissue uptake at 1 h [2, 8] was 16.1 %ID/g and the tissue uptake at 1 h [2, 9] was 4.01 %ID/g. For the same compound, the tissue uptake at 1 h ([2]; Thyroid, read-out: % iD/g Thyroid) was 1.46 %ID/g, the tissue uptake at 1 h ([2]; Tumor, read-out: % iD/g Tumor) was 1.1 %ID/g and the IC50 (CXCR4; [3]) was 10.2 ± 3.95 nM.
